The nature of this data set: Stability: hourly moisture content (moisture absorption from the air). It counts as physicochemical. From the text:
As a result, the moisture content increased, as the time went by. […] The elementary analysis data for the aforementioned hydrates is illustrated in the following Table 2.

With `CCCCc1nc(C)c(CC(=S)N(C)C)c(=O)n1Cc1ccc(-c2ccccc2-c2nnn[nH]2)cc1` [Example 3, 2-n-butyl-5-dimethylaminothiocarbonylmethyl-6-methyl-3-[[2′-(1 H-tetrazol-5-yl)biphenyl-4-yl]methyl]-pyrimidin-4(3H)-one], the moisture content reads like this: (60% RH, Time 1 hour) 6.2%; (60% RH, Time 2 hour) 9.1%; (60% RH, Time 3 hour) 9.15%; (60% RH, Time 4 hour) 9.1%; (60% RH, Time 5 hour) 9.2%; (60% RH, Time 6 hour) 9.1%. The moisture content reads like this: (75% RH, Time 1 hour) 9.05%; (75% RH, Time 2 hour) 9.1%; (75% RH, Time 3 hour) 9.1%; (75% RH, Time 4 hour) 9.15%; (75% RH, Time 5 hour) 9.2%; (75% RH, Time 6 hour) 9.1%. For the same molecule, the moisture content reads like this: (Room temperature & Room humidity, Time 1 hour) 3.4%; (Room temperature & Room humidity, Time 2 hour) 5.6%; (Room temperature & Room humidity, Time 3 hour) 9.1%; (Room temperature & Room humidity, Time 4 hour) 9.2%; (Room temperature & Room humidity, Time 5 hour) 9.1%; (Room temperature & Room humidity, Time 6 hour) 9.1%.

The values above are taken from patent US7309788B2, “Method for preparing pyrimidinone compound and pharmaceutically acceptable salts thereof” (Boryung Pharmaceutical Co., Ltd., priority 2001, dated 2007).
